Measured values: patent US20060074073A1, “Therapeutic combinations comprising poly (ADP-ribose) polymerases inhibitor” (AGOURON PHARMACEUTICALS, INC., priority 2004, published 2006)
Where two headings read alike, the source gives them in different places.

How the values were obtained:
[1] = human, in vivo
Description: This is an open-label, multi-center, dose-escalation study being conducted in 2 parts. Part 1 of the study was open to patients with advanced tumors.
The PK analysis was conducted on preliminary interim data using nominal collection times.

PARP = PARP activity in peripheral blood lymphocytes of patients (monoclonal antibody assay); format: in vivo, human
Description: Whole blood was collected into EDTA vacutainers and human PBLs were obtained by lymphopreparation according to the manufacturers instructions. Tumour biopsies were collected from the operating theatre in a sterile container and placed immediately on ice. Within 30 minutes tumour samples were snap frozen in liquid nitrogen and stored at −80° C. until homogenised for analysis. The specimen was defrosted on ice and the wet weight documented. For weights over 100 mg the tissue was homogenised using a Pro 2000 instrument (Pro Scientific Inc, Monroe, Conn., USA) in 3 volumes (i.e. 1 mg plus 3 μl isotonic buffer −7 mM Hepes, 26 mM KCl, 0.1 mM dextran, 0.4 mM EGTA, 0.5 mM MgCl2, 45 mM sucrose, pH 7.8), giving a homogenate with an overall dilution of 1 in 4. Where smaller samples had been obtained they were homogenised in 99 or 999 volumes, giving final dilutions of 1 in 100 and 1 in 1000, respectively. The homogenate was kept on ice throughout the process, and homogenisation was performed in 10 second bursts to prevent undue warming of the sample. Unless assayed on the day of homogenisation, samples were re-frozen to −80° C. and stored at this temperature until analysed. Prior to assay the samples were further diluted with isotonic buffer where necessary to give a final dilution of 1 in 1000.
Cultured cells or rapidly defrosted lymphocyte preparations were washed twice in ice cold PBS. The cell pellets were resuspended in 0.15 mg/ml digitonin to a density of approximately 1-2×10^6 cells per ml for 5 minutes to permeabilise the cells, following which 9 volumes of ice-cold buffer (7 mM HEPES, 26 mM KCl, 0.1 mM dextran, 0.4 mM EGTA, 0.5 mM MgCl2, 45 mM sucrose, pH 7.8) were added and the sample placed on ice. The permeabilised (i.e. trypan blue stained) cell density was counted and the cell suspension was diluted if necessary with the above buffer to achieve a cell density that allowed 20,000 permeabilised cells to be added to each reaction tube. In the assay maximally stimulated PARP activity is measured by exposure to a blunt ended oligonucleotide in the presence of NAD^+ substrate, at 26° C. in an oscillating water bath. Five μl of 7 mM NAD^+ and 5 μl 200 μg/ml pallindromic oligonucleotide ([…]) were mixed with permeabilised cells and reaction buffer (100 mM Tris HCl, 120 mM MgCl2, pH 7.8) to a final volume of 100 μl. The reaction was stopped after 6 minutes by the addition of excess PARP inhibitor (400 μl of 12.5 μM Compound I) and the cells blotted onto a nitrocellulose membrane (Hybond N, Amersham) using a 24-well manifold. A purified PAR standard curve was loaded onto each membrane (0-25 pmol monomer equivalent) to allow quantification. Overnight incubation with the primary antibody (1 in 500 in PBS-MT (PBS plus 0.05% Tween 20 Plus 5% Milk powder) at 4° C. was followed by 2 washes in PBS-T (PBS plus 0.05% Tween 20) and then incubation in secondary antibody (1 in 1000 in PBS-MT) for 1 hour at room temperature. The incubated membrane was washed frequently with PBS over the course of one hour then exposed for one minute to ECL reaction solution as supplied by the manufacturer. Chemiluminesence detected during a 5 minute exposure was measured using a Fuji LAS3000 UV Illuminator (Raytek, Sheffield, UK) and digitised using the imaging software (Fuji LAS Image version 1.1, Raytek). The acquired image was analysed using Aida Image Analyser (version 3.28.001), and results expressed in LAU/mm^2. Three background areas on the exposed blot were measured and the mean of the background signal from the membrane subtracted from all results. The PAR polymer standard curve was analysed using an un-weighted one site binding non-linear regression model and unknowns read off the standard curve so generated. Results were then expressed relative to the number of cells loaded. Triplicate QC samples of 5000 L1210 cells were run with each assay, all samples from one patient being analysed on the same blot. […]

LoVo cells = test: Inhibition of potentially lethal damage recovery, colony formation; format: cell-based; settings: 8 Gy + 0.4 μM compound
Text: A contributory factor to radiation resistance in vivo is the ability of quiescent cells to repair potentially lethal damage (PLD) (Weichselbaum, R. R. and Little, J. B. The differential response of human tumors to fractionated radiation may be due to a post-irradiation repair process. Br. J. Cancer 1982; 46: 532-537). In vitro models of PLD measure the increase in survival of irradiated, growth arrested cells following delayed plating for colony formation. Recovery from potentially lethal damage was measured in vitro using LoVo cells that had been arrested in G1 phase by growing to confluence to mimic the radio-resistant quiescent cell population in tumors. Cells were exposed to 8 Gy of γ-irradiation (Gammacel 1000 Elite, Nordian International Inc. Canada), and either harvested and plated for colony formation assay immediately or maintained as growth arrested confluent cultures for a 24-hour recovery period before harvesting and plating for the colony formation assay. Where indicated, 0.4 μM compound Formula 1 was added 30 minutes before irradiation and was present throughout the recovery incubation.

SMILES: CNCc1ccc(-c2[nH]c3cc(F)cc4c3c2CCNC4=O)cc1.O=P(O)(O)O [Compound I, phosphate salt of 8-fluoro-2-{4-[(methylamino)methyl]phenyl}-1,3,4,5-tetrahydro-6H-azepino[5,4,3-cd]indol-6-one]
- mean total body clearance [1]: 27 L/h
- dose proportionality in AUC(0-24) and Cmax ([1]; iv): linear dose proportionality
- mean terminal half-life ([1]; iv): 6.2 to 10.7 h
- AUC0-24 ([1]; iv, 1 mg/m2): 24.2 ng·h/mL
- AUCinf ([1]; iv, 1 mg/m2): 24.2 ng·h/mL
- AUC0-24 ([1]; iv, 2 mg/m2): 139.0 ng·h/mL
- AUCinf ([1]; iv, 2 mg/m2): 167.0 ng·h/mL
- AUC0-24 ([1]; iv, 4 mg/m2): 237.3 ng·h/mL
- AUCinf ([1]; iv, 4 mg/m2): 286.6 ng·h/mL
- CL ([1]; iv, 4 mg/m2): 26.0 L/h
- Cmax ([1]; iv, 4 mg/m2): 168.9 ng/mL
- Vss ([1]; iv, 4 mg/m2): 286.4 L
- t1/2 ([1]; iv, 4 mg/m2): 10.7 h
- AUC0-24 ([1]; iv, 8 mg/m2): 892.4 ng·h/mL
- AUCinf ([1]; iv, 8 mg/m2): 1118.8 ng·h/mL
- CL ([1]; iv, 8 mg/m2): 16.9 L/h
- Cmax ([1]; iv, 8 mg/m2): 456.4 ng/mL
- Vss ([1]; iv, 8 mg/m2): 151.7 L
- t1/2 ([1]; iv, 8 mg/m2): 10.5 h
- AUC0-24 ([1]; iv, 12 mg/m2): 1017.1 ng·h/mL
- AUCinf ([1]; iv, 12 mg/m2): 1163.3 ng·h/mL
- CL ([1]; iv, 12 mg/m2): 23.9 L/h
- Cmax ([1]; iv, 12 mg/m2): 882.5 ng/mL
- Vss ([1]; iv, 12 mg/m2): 270.1 L
- t1/2 ([1]; iv, 12 mg/m2): 10.6 h
- decrease in median PARP activity (PARP; PBL, all patients regardless of dose, after completion of the 30-minute infusion on Day 1): ≥ 50%
- % Pretreatment PARP Activity, Median (%) (PARP; PBL, cohort 1, Compound I 1 mg/m^2, 4-6 h, after test dose (usually Day −7)): 57%
- % Pretreatment PARP Activity, Median (%) (PARP; PBL, cohort 1, Compound I 1 mg/m^2, 0.5 h, after test dose (usually Day −7)): 18%
- % Pretreatment PARP Activity, Median (%) (PARP; PBL, cohort 1, Compound I 1 mg/m^2, 24 h, after test dose (usually Day −7)): 77%
- % Pretreatment PARP Activity, Median (%) (PARP; PBL, cohort 2, Compound I 2 mg/m^2, 4-6 h, Day 1): 27%
- % Pretreatment PARP Activity, Median (%) (PARP; PBL, cohort 2, Compound I 2 mg/m^2, 0.5 h, Day 1): 10%
- % Pretreatment PARP Activity, Median (%) (PARP; PBL, cohort 2, Compound I 2 mg/m^2, 24 h, Day 1): 36%
- % Pretreatment PARP Activity, Median (%) (PARP; PBL, cohort 3, Compound I 4 mg/m^2, 4-6 h, Day 1): 28%
- % Pretreatment PARP Activity, Median (%) (PARP; PBL, cohort 3, Compound I 4 mg/m^2, 0.5 h, Day 1): 42%
- % Pretreatment PARP Activity, Median (%) (PARP; PBL, cohort 3, Compound I 4 mg/m^2, 24 h, Day 1): 108%
- % Pretreatment PARP Activity, Median (%) (PARP; PBL, cohort 4, Compound I 8 mg/m^2, 4-6 h, Day 1): 16%
- % Pretreatment PARP Activity, Median (%) (PARP; PBL, cohort 4, Compound I 8 mg/m^2, 0.5 h, Day 1): 1%
- % Pretreatment PARP Activity, Median (%) (PARP; PBL, cohort 4, Compound I 8 mg/m^2, 24 h, Day 1): 9%
- % Pretreatment PARP Activity, Median (%) (PARP; PBL, cohort 9, Compound I 18 mg/m^2, 4-6 h, Day 1): 7.5%
- % Pretreatment PARP Activity, Median (%) (PARP; PBL, cohort 9, Compound I 18 mg/m^2, 0.5 h, Day 1): 6%
- % Pretreatment PARP Activity, Median (%) (PARP; PBL, cohort 9, Compound I 18 mg/m^2, 24 h, Day 1): 14%
- median reduction in PARP activity (PARP; PBL, cohorts 4 and 5, 24 hours after Day 1 dose): > 50%
- % Pretreatment PARP Activity, Median (%) (PARP; PBL, cohorts 5-8, Compound I 12 mg/m^2, 4-6 h, Day 1): 13%
- % Pretreatment PARP Activity, Median (%) (PARP; PBL, cohorts 5-8, Compound I 12 mg/m^2, 0.5 h, Day 1): 14.5%
- % Pretreatment PARP Activity, Median (%) (PARP; PBL, cohorts 5-8, Compound I 12 mg/m^2, 24 h, Day 1): 29%
- PARP inhibitory dose (PID) (PARP; patients, PARP activity in peripheral blood lymphocytes <50% of baseline 24 hours after Day 1 dose, with plateau): 12 mg/m^2

SMILES: CNCc1ccc(-c2[nH]c3cc(F)cc4c3c2CCNC4=O)cc1 [compound of formula 1, 8-fluoro-2-{4-[(methylamino)methyl]phenyl}-1,3,4,5-tetrahydro-6H-azepino[5,4,3-cd]indol-6-one]
- % PLDR (LoVo cells; 100 × (survival at 24 hr-survival at 0 time)/survival at 0 time): 211 ± 184%
- Survival at 0 time (LoVo cells; G1-arrested): 0.02 ± 0.01
- Survival at 24 hr (LoVo cells; G1-arrested): 0.057 ± 0.038
- inhibition at 0.4 µM (LoVo cells; Homo sapiens, mean of 3 independent experiments, read-out: Inhibition of PLDR): 64.9%
